# BindingDB's records for doi:10.1021/jm960331f (Oregon State University, 1996)
# Assay: determined in L-pipecolate oxidase from Rehsus monkey
smiles,measurement,value
O=C(O)[C@@H]1CCCCN1 [(S)-pipecolate],Ki,130 µM
